This note sets out measurements from US20100285959A1, “HERBICIDAL MIXTURES” (priority 2006, published 2010).

The subject of one data set is flint corn (ZEAMI). Put plainly: Test 12 field trial, preemergence. Format: in vivo, Zea mays L. ssp. indurata. The note with it: Cpd 2 or Cpd 1 62 g a.i./ha, Diuron 2000 g a.i./ha. From the text:
In early-mid spring season, corn seeds (hybrid ‘Pioneer 3041’) were planted 5 cm deep and sugarcane nodes (variety RB-72.454) were planted 10 cm deep in separate plots in a clay soil having 2.6% organic matter and a pH of 5.6. Plots were 24 m long by 1.5 m wide with rows spaced 80 cm (corn) or 140 cm (sugarcane) apart. Corn seeds were spaced 15 cm apart and sugarcane nodes were spaced 10 cm apart within the rows. At the same time, weed seeds were broadcast over the surface of separate plots without a crop, one weed species per plot. The weed plots were rotary tilled to incorporate the weed seeds to a variety of depths. The field was managed using conventional tillage practices.

For a further data set, the system named is shepherd's purse (CAPBP). Nature of the data set: Test 9 field trial, emerged weeds before corn planting. Format: in vivo, Capsella bursa-pastoris. Particulars: g a.i./ha: Cpd 2 100, Glyphosate 1540, Paraquat 1150. As for the experimental part: Corn seeds (hybrid ‘Pioneer 34M91 RR’) were planted in mid spring season, about 3.8 cm deep in a silty clay loam soil having a pH of 6.7. Plots were 9.1 m long by 3.0 m. The field was managed using no-till practices. […] Compound 2 and paraquat treatments, alone and in combination, also included a surfactant. Glyphosate, alone and with Compound 2, included ammonium sulfate in the treatment mixture. […] The effects on the weeds in the treated plots and untreated control plots were recorded 7, 14, 23, 30 and 57 days after application. Most of the weed species could not be evaluated at every timing. Corn response was only evaluated 57 days after application. […] Results are the means of the three replicates.

For a further data set, the system named is giant foxtail (SETFA). Put plainly: Test 14 field trial, preemergence, growth as percent of control. Format: in vivo, Setaria faberi. From the text:
(§1) Corn seeds (hybrid ‘Pioneer 31G96 RR’) were planted in mid spring season, 3.8 cm deep in a clay loam soil having 2% organic matter and a pH of 6.6. Plots were 6.1 m long by 3.0 m wide with rows spaced 76 cm apart. Seeds were spaced 15 cm apart within the rows. The field was managed using conventional tillage practices. […] Yellow nutsedge was only evaluated 19 and 28 days after application, and ivyleaf morningglory could only be evaluated 28 days after application. […] Results are the means of the three replicates. This growth inhibition data was converted to results in the form of “plant growth as a percent of control plant growth” using the calculation “100 minus growth inhibition”. […] For “growth as a percent of control” data, Colby's Equation calculates the expected additive effect of herbicidal mixtures having two active ingredients as follows:
(§2) Ga+b=GaGb/100 • wherein Ga+b is the growth as a percent of control of plants treated with the mixture expected from additive contribution of the individual components, • Ga is the observed growth as a percent of control of plants treated with the first active ingredient at the same use rate as in the mixture, and • Gb is the observed growth as a percent of control of plants treated with the second active ingredient at the same use rate as in the mixture. For mixtures having three active ingredients, Colby's Equation to calculate the expected additive effect of herbicidal mixtures is as follows:
(§3) Ga+b+c=GaGbGc/10,000 • wherein Ga and Gb are as defined above and • Ga+b+c is the growth as a percent of control of plants treated with the mixture expected from additive contribution of the individual components, and • Gc is the observed growth as a percent of control of plants treated with the third active ingredient at the same use rate as in the mixture. When these two forms of Colby's Equation are used, if the observed effects on weeds are less than the expected values, the mixture is synergistic.

In another data set the test system is winter barley (HORVW). Nature of the data set: Test 23 growth chamber, postemergence. Format: in vivo, Hordeum vulgare. Particulars: 21 DAA. The method, then:
A test was conducted to evaluate the effects on winter barley (HORVW, Hordeum vulgare L.), winter wheat (TRZAW, Triticum aestivum L.), and several weed species of mixtures of Compound 2 with the commercial herbicides (2,4-dichlorophenoxy)acetic acid (2,4-D) and (4-chloro-2-methylphenoxy)acetic acid (MCPA), auxin mimics. […] Plants were treated postemergence at the 2-4 leaf growth stage, and each treatment was replicated three times. […] Plants were watered as needed. […] Results are means of the three replicates.

Data set [1] relates to Pennsylvania smartweed (POLPY). Nature of the data set: Test 7 field trial, preemergence. Format: in vivo, Polygonum pensylvanicum. As for the experimental part:
Plots were 7.6 m long by 3.0 m wide with rows spaced 76 cm apart. Seeds were spaced 15 cm apart within the rows. The field was managed using conventional tillage practices. […] Wild radish was evaluated 14 and 28 days after application. […] Results are the means of the three replicates.

Another data set has as its system velvetleaf (ABUTH). Put plainly: Test 14 field trial, preemergence, growth as percent of control. Format: in vivo, Abutilon theophrasti.
Text: as §1, §2, §3

A further data set concerns wild chamomile (MATCH). Nature of the data set: Test 21 growth chamber, postemergence. Particulars: 19 DAA. Format: in vivo, Matricaria chamomilla. The method, then: A test was conducted to evaluate the effects on winter barley (HORVW, Hordeum vulgare L.), winter wheat (TRZAW, Triticum aestivum L.), and several weed species, of mixtures of Compound 2 with the commercial herbicide (2,4-dichlorophenoxy)acetic acid (2,4-D), an auxin mimic. […] Plants were treated postemergence at the 2-4 leaf growth stage, and each treatment was replicated one time. […] Plants were watered as needed. […] Results are from single replicates.

For a further data set, the system named is redroot pigweed (AMARE). Nature of the data set: Test 22 growth chamber, postemergence. Type of data set: in vivo, Amaranthus retroflexus. The note with it: 25 DAA. The method, then:
A test was conducted to evaluate the effects on winter barley (HORVW, Hordeum vulgare L.), winter wheat (TRZAW, Triticum aestivum L.), and several weed species of mixtures of Compound 2 with the commercial herbicides (2,4-dichlorophenoxy)acetic acid (2,4-D) and (4-chloro-2-methylphenoxy)acetic acid (MCPA), auxin mimics. […] Plants were treated postemergence at the 2-4 leaf growth stage, except KCHSC, SASKR and STEME which were in the 4-8 leaf growth stage. Each treatment was replicated one time. […] Plants were watered as needed. […] Results are from single replicates.

Setting [2] is: 2,4-D or MCPA alone 250 g a.i./ha.

As for `Nc1nc(C2CC2)nc(C(=O)O)c1Cl` [Compound 1, 6-amino-5-chloro-2-cyclopropyl-4-pyrimidinecarboxylic acid], the ZEAMI Obs with flint corn (ZEAMI) (15 DAA) is 0%; in the data set on flint corn (ZEAMI) (29 DAA), 10%; with flint corn (ZEAMI) (48 DAA), 20%; in the data set on flint corn (ZEAMI) (61 DAA), 15%.

As to `COC(=O)c1nc(C2CC2)nc(N)c1Cl` [Compound 2, methyl 6-amino-5-chloro-2-cyclopropyl-4-pyrimidinecarboxylate], the “CAPBP Obs” value with shepherd's purse (CAPBP) (7 DAA) is given as 23%; with shepherd's purse (CAPBP) (14 DAA), 17%; in the data set with shepherd's purse (CAPBP) (23 DAA) it was 7%; in the data set on shepherd's purse (CAPBP) (30 DAA), 0%; in the data set on shepherd's purse (CAPBP) (57 DAA) it was 0%. Also, the “Obs growth % of control” value worked out at 58% in the data set with giant foxtail (SETFA) (19 DAA, 75 g a.i./ha); 48% in the data set with giant foxtail (SETFA) (19 DAA, 100 g a.i./ha); 68% in the data set on giant foxtail (SETFA) (28 DAA, 75 g a.i./ha); 67% with giant foxtail (SETFA) (28 DAA, 100 g a.i./ha); 92% in the data set with giant foxtail (SETFA) (56 DAA, 75 g a.i./ha); 97% in the data set with giant foxtail (SETFA) (56 DAA, 100 g a.i./ha). Besides, the “Obs growth % of control” value is listed as 80% in the data set on velvetleaf (ABUTH) (19 DAA, 75 g a.i./ha); 60% in the data set on velvetleaf (ABUTH) (19 DAA, 100 g a.i./ha); 43% in the data set with velvetleaf (ABUTH) (28 DAA, 75 g a.i./ha); 22% with velvetleaf (ABUTH) (28 DAA, 100 g a.i./ha); 43% with velvetleaf (ABUTH) (56 DAA, 75 g a.i./ha); 30% in the data set with velvetleaf (ABUTH) (56 DAA, 100 g a.i./ha). Further, the “Postemergence HORVW Obs” value in the data set with winter barley (HORVW) (Cpd 2 alone 4 g a.i./ha) turned out to be 32; in the data set on winter barley (HORVW) (Cpd 2 alone 8 g a.i./ha) it was 38; with winter barley (HORVW) (Cpd 2 alone 16 g a.i./ha) it was 38. Moreover, the “POLPY Obs” value in data set [1] (14 DAA, 125 g a.i./ha) stood at 77%; in data set [1] (14 DAA, 250 g a.i./ha), 95%; in data set [1] (14 DAA, 500 g a.i./ha), 97%; in data set [1] (28 DAA, 125 g a.i./ha) it was 70%; in data set [1] (28 DAA, 250 g a.i./ha), 93%; in data set [1] (28 DAA, 500 g a.i./ha), 97%. Moreover, the “POLPY Obs” value was determined as 40% in data set [1] (62 DAA, 125 g a.i./ha) and 100% in data set [1] (62 DAA, 500 g a.i./ha). For the same compound, the “Postemergence MATCH Obs” value in the data set on wild chamomile (MATCH) (Cpd 2 alone 16 g a.i./ha) is 60. Moreover, the ZEAMI Obs in the data set with flint corn (ZEAMI) (15 DAA) stood at 15%; in the data set with flint corn (ZEAMI) (29 DAA) it was 10%; in the data set on flint corn (ZEAMI) (48 DAA), 0%; in the data set with flint corn (ZEAMI) (61 DAA) it was 15%. Further, the “Postemergence AMARE Obs” value came out at 55 in the data set on redroot pigweed (AMARE) (Cpd 2 alone 4 g a.i./ha), 65 in the data set with redroot pigweed (AMARE) (Cpd 2 alone 8 g a.i./ha) and 65 in the data set with redroot pigweed (AMARE) (Cpd 2 alone 16 g a.i./ha).

Consider `CCc1cccc(C)c1N(C(=O)CCl)[C@@H](C)COC` [S-Metolachlor, S-metolachlor, reference compound], for which the “Obs growth % of control” value in the data set on giant foxtail (SETFA) (19 DAA, 1870 g a.i./ha) was 7%; in the data set with giant foxtail (SETFA) (28 DAA, 1870 g a.i./ha), 5%; in the data set on giant foxtail (SETFA) (56 DAA, 1870 g a.i./ha), 1%; in the data set with velvetleaf (ABUTH) (19 DAA, 1870 g a.i./ha) it was 68%; in the data set with velvetleaf (ABUTH) (28 DAA, 1870 g a.i./ha), 6%; in the data set with velvetleaf (ABUTH) (56 DAA, 1870 g a.i./ha) it was 87%. Moreover, the “POLPY Obs” value came out at 60% in data set [1] (14 DAA, 1000 g a.i./ha); 45% in data set [1] (28 DAA, 1000 g a.i./ha); 10% in data set [1] (62 DAA, 1000 g a.i./ha).

Regarding `O=C(O)COc1ccc(Cl)cc1Cl` [2,4-D, (2,4-dichlorophenoxy)acetic acid], the “Postemergence HORVW Obs” value with winter barley (HORVW) (setting [2]) is on record as 25. In addition, the “Postemergence MATCH Obs” value is on record as 40 in the data set on wild chamomile (MATCH) (2,4-D alone 125 g a.i./ha) and 45 with wild chamomile (MATCH) (2,4-D alone 250 g a.i./ha). Further, in the data set on redroot pigweed (AMARE) (setting [2]), the “Postemergence AMARE Obs” value is listed as 70.

For `O=C(O)CNCP(=O)(O)O` [Glyphosate], the “CAPBP Obs” value in the data set with shepherd's purse (CAPBP) (7 DAA) was 52%; in the data set on shepherd's purse (CAPBP) (14 DAA), 73%; in the data set with shepherd's purse (CAPBP) (23 DAA) it was 88%; with shepherd's purse (CAPBP) (30 DAA), 98%; in the data set with shepherd's purse (CAPBP) (57 DAA) it was 100%.
